Data: PubChem BioAssay (NCI)
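Results reflect a 48-hour exposure of cells in 96-well plates to compound at five concentrations. TGI denotes the concentration required for complete inhibition of growth.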

Columns and labels:
Experiment in all cases: DTP human tumour cell line panel, 48 h
[1] = tested on: 786-0 renal
[2] = tested on: A498 renal
[3] = tested on: ACHN renal
[4] = tested on: BT-549 breast
[5] = tested on: CAKI-1 renal
[6] = tested on: COLO 205 colon
[7] = tested on: DU-145 prostate
[8] = tested on: EKVX NSCLC
[9] = tested on: HCC-2998 colon
[10] = tested on: HCT-116 colon
[11] = tested on: HCT-15 colon
[12] = tested on: HL-60(TB) leukemia
[13] = tested on: HOP-62 NSCLC
[14] = tested on: HS 578T breast
[15] = tested on: HT29 colon
[16] = tested on: IGROV1 ovarian
[17] = tested on: K-562 leukemia
[18] = tested on: KM12 colon
[19] = tested on: LOX IMVI melanoma
[20] = tested on: MALME-3M melanoma
[21] = tested on: MCF7 breast
[22] = tested on: MDA-MB-231 breast
[23] = tested on: MDA-MB-435
[24] = tested on: MDA-N
[25] = tested on: MOLT-4 leukemia
[26] = tested on: NCI-H226 lung
[27] = tested on: NCI-H23 lung
[28] = tested on: NCI-H460 lung
[29] = tested on: NCI-H522 lung
[30] = tested on: NCI/ADR-RES ovarian
[31] = tested on: OVCAR-3 ovarian
[32] = tested on: OVCAR-4 ovarian
[33] = tested on: OVCAR-5 ovarian
[34] = tested on: OVCAR-8 ovarian
[35] = tested on: PC-3 prostate
[36] = tested on: RPMI-8226 leukemia
[37] = tested on: RXF 393 renal
[38] = tested on: SF-268 CNS
[39] = tested on: SF-295 CNS
[40] = tested on: SK-MEL-2 melanoma
[41] = tested on: SK-MEL-28 melanoma
[42] = tested on: SK-MEL-5 melanoma
[43] = tested on: SN12C renal
[44] = tested on: SNB-19 CNS
[45] = tested on: SNB-75 CNS
[46] = tested on: SR leukemia
[47] = tested on: SW-620 colon
[48] = tested on: T-47D breast
[49] = tested on: TK-10 renal
[50] = tested on: U251 CNS
[51] = tested on: UACC-257 melanoma
[52] = tested on: UACC-62 melanoma
[53] = tested on: UO-31 renal
[54] = tested on: A549 NSCLC
[55] = tested on: CCRF-CEM leukemia
[56] = tested on: HOP-92 NSCLC
[57] = tested on: M14 melanoma
[58] = tested on: SF-539 CNS
[59] = tested on: SK-OV-3 ovarian

Measured: TGI

CCO[C@@H]1CCC(S(=O)c2ccc(C)cc2)=CO1 (stereo not given in full)
> 100 µM: [1] | [2] | [3] | [4] | [5] | [6] | [7] | [8] | [9] | [10] | [11] | [12] | [13] | [14] | [15] | [16] | [17] | [18] | [19] | [20] | [21] | [22] | [23] | [24] | [25] | [26] | [27] | [28] | [29] | [30] | [31] | [32] | [33] | [34] | [35] | [36] | [37] | [38] | [39] | [40] | [41] | [42] | [43] | [44] | [45] | [46] | [47] | [48] | [49] | [50] | [51] | [52] | [53]

CCCc1c(O)c(=O)c2c(OC)cc(OC)c3c4c(OC)cc(OC)c5c(=O)c(O)c(CCC)c(c1c23)c54
3.73 µM: [7]
11.9 µM: [2]
12.2 µM: [24] | [39] | [47]
10.9 µM: [26]
19.4 µM: [33]
2.96 µM: [59]
8.94 µM: [6]
1.88 µM: [52]
2.55 µM: [56]
0.463 µM: [46]
13.1 µM: [54]
10.1 µM: [4]
28 µM: [37]
3.53 µM: [45]
1.86 µM: [19]
14.1 µM: [32]
8.11 µM: [13]
7.09 µM: [22]
8.65 µM: [57]
3.55 µM: [30]
6.66 µM: [8]
5.41 µM: [18]
9.59 µM: [1]
7.06 µM: [51]
1.23 µM: [10] | [25]
0.589 µM: [17]
5.73 µM: [48]
19.1 µM: [41]
4.64 µM: [12]
12.7 µM: [44]
6.75 µM: [15]
15.3 µM: [21]
10.4 µM: [23]
3.38 µM: [34]
19.5 µM: [38]
3.97 µM: [16]
11.6 µM: [11]
3.58 µM: [3]
1.11 µM: [36]
3.35 µM: [53]
3.16 µM: [27]
18.2 µM: [35]
17.1 µM: [9]
1.15 µM: [29]
> 27.7 µM: [31]
11.3 µM: [58] | [50]
0.582 µM: [55]
22.3 µM: [43]
8.71 µM: [40]
72.2 µM: [14]
2.31 µM: [28]
2.32 µM: [5]
15.8 µM: [49]
1.91 µM: [42]

COc1cc(C[C@H]2C(=O)OC[C@@H]2Cc2ccc(OC)c(OC)c2)cc(OC)c1
54.5 µM: [42]
77.1 µM: [12]
49.5 µM: [19]
> 100 µM: [1] | [54] | [3] | [4] | [5] | [55] | [6] | [7] | [8] | [9] | [10] | [11] | [13] | [56] | [14] | [15] | [16] | [17] | [18] | [57] | [20] | [21] | [22] | [23] | [24] | [25] | [26] | [27] | [28] | [29] | [30] | [31] | [32] | [33] | [34] | [35] | [36] | [37] | [38] | [39] | [58] | [40] | [41] | [59] | [43] | [44] | [45] | [46] | [47] | [48] | [49] | [50] | [51] | [52] | [53]

c1ccc(-c2ccc(-c3cc4ccccc4[nH]3)cc2)cc1
> 100 µM: [1] | [54] | [3] | [4] | [5] | [55] | [6] | [7] | [8] | [9] | [10] | [11] | [12] | [13] | [56] | [14] | [15] | [16] | [18] | [19] | [57] | [20] | [21] | [22] | [23] | [24] | [25] | [26] | [27] | [28] | [29] | [30] | [31] | [32] | [33] | [34] | [35] | [36] | [38] | [39] | [58] | [40] | [41] | [42] | [59] | [43] | [44] | [45] | [46] | [47] | [48] | [49] | [50] | [51] | [52] | [53]
